± gives the expanded uncertainty stated by the source.
Assay: mn = molality of the nth substance listed, in mol/kg
Conditions: for electrical conductivity: 100 kPa, Liquid, Frequency=0.002 MHz, Alternating current cell with electrodes; for surface tension liquid-gas: Ring tensiometer

CCCCCCCCCCCCCCCC[n+]1ccn(C)c1.[Cl-] [1-hexadecyl-3-methylimidazolium chloride] + O
Conditions	electrical conductivity, 303.15 K [S/m]	electrical conductivity, 313.15 K [S/m]	electrical conductivity, 323.15 K [S/m]	surface tension liquid-gas, 313.15 K [mN/m]
m1 = 1.3e-05	–	–	–	57.9 ± 2.4
m1 = 4.4e-05	–	–	–	56.4 ± 2.4
m1 = 0.00011	0.00121 ± 0.00012	0.00152 ± 0.00015	0.00171 ± 0.00017	–
m1 = 0.000146	–	–	–	53.2 ± 2.2
m1 = 0.00022	0.00234 ± 0.00023	0.00295 ± 0.0003	0.00334 ± 0.00033	–
m1 = 0.000247	–	–	–	50.1 ± 2.1
m1 = 0.00033	0.00341 ± 0.00034	0.00432 ± 0.00043	0.00491 ± 0.00049	–
m1 = 0.00043	0.00444 ± 0.00044	0.0056 ± 0.00056	0.0064 ± 0.00064	–
m1 = 0.000435	–	–	–	46.4 ± 1.9
m1 = 0.00052	0.00541 ± 0.00054	0.00686 ± 0.00069	0.00791 ± 0.00079	–
m1 = 0.00062	0.00636 ± 0.00064	0.00803 ± 0.0008	0.00929 ± 0.00093	–
m1 = 0.00071	0.00726 ± 0.00073	0.00918 ± 0.00092	0.0106 ± 0.0011	–
m1 = 0.000734	–	–	–	39.2 ± 1.6
m1 = 0.00079	0.00809 ± 0.00081	0.0102 ± 0.001	0.0119 ± 0.0012	–
m1 = 0.00088	0.0088 ± 0.00088	0.0112 ± 0.0011	0.0133 ± 0.0013	–
m1 = 0.00096	0.00933 ± 0.00093	0.0119 ± 0.0012	0.0143 ± 0.0014	–
m1 = 0.00104	0.00977 ± 0.00098	0.0125 ± 0.0013	0.0153 ± 0.0015	–
m1 = 0.00112	0.0102 ± 0.001	0.0131 ± 0.0013	0.0161 ± 0.0016	–
m1 = 0.00119	0.0106 ± 0.0011	0.0136 ± 0.0014	0.0168 ± 0.0017	–
m1 = 0.00126	0.0109 ± 0.0011	0.0141 ± 0.0014	0.0175 ± 0.0018	–
m1 = 0.00127	–	–	–	38.8 ± 1.6
m1 = 0.00133	0.0112 ± 0.0011	0.0145 ± 0.0014	0.0181 ± 0.0018	–
m1 = 0.00139	0.0115 ± 0.0011	0.0149 ± 0.0015	0.0186 ± 0.0019	–
m1 = 0.00146	0.0118 ± 0.0012	0.0154 ± 0.0015	0.0192 ± 0.0019	–
m1 = 0.00153	0.0121 ± 0.0012	0.0157 ± 0.0016	0.0197 ± 0.002	–
m1 = 0.002558	–	–	–	38.8 ± 1.6
m1 = 0.00525	–	–	–	38.1 ± 1.6

CCCCCCCCCCCC[N+](C)(C)C.[Br-] [dodecyltrimethylammonium bromide] + O
Conditions	electrical conductivity, 303.15 K [S/m]	electrical conductivity, 313.15 K [S/m]	electrical conductivity, 323.15 K [S/m]	surface tension liquid-gas, 313.15 K [mN/m]
m1 = 6e-06	–	–	–	65.2 ± 2.7
m1 = 2.5e-05	–	–	–	63.6 ± 2.7
m1 = 5.6e-05	–	–	–	62.5 ± 2.6
m1 = 0.000135	–	–	–	61.3 ± 2.6
m1 = 0.000263	–	–	–	58.3 ± 2.4
m1 = 0.000739	–	–	–	54.7 ± 2.3
m1 = 0.001308	–	–	–	51.3 ± 2.1
m1 = 0.00178	0.0194 ± 0.0019	0.0234 ± 0.0023	0.0282 ± 0.0028	–
m1 = 0.00353	0.0374 ± 0.0037	0.0467 ± 0.0047	0.0547 ± 0.0055	–
m1 = 0.004064	–	–	–	46 ± 1.9
m1 = 0.00524	0.0553 ± 0.0055	0.0668 ± 0.0067	0.0802 ± 0.008	–
m1 = 0.006048	–	–	–	43.3 ± 1.8
m1 = 0.00692	0.0727 ± 0.0073	0.0871 ± 0.0087	0.105 ± 0.01	–
m1 = 0.008433	–	–	–	39.5 ± 1.7
m1 = 0.00857	0.0893 ± 0.0089	0.107 ± 0.011	0.128 ± 0.013	–
m1 = 0.01019	0.106 ± 0.011	0.126 ± 0.013	0.152 ± 0.015	–
m1 = 0.01178	0.121 ± 0.012	0.145 ± 0.015	0.174 ± 0.017	–
m1 = 0.01333	0.136 ± 0.014	0.163 ± 0.016	0.196 ± 0.02	–
m1 = 0.01486	0.149 ± 0.015	0.18 ± 0.018	0.216 ± 0.022	–
m1 = 0.01636	0.157 ± 0.016	0.193 ± 0.019	0.234 ± 0.023	–
m1 = 0.01784	0.162 ± 0.016	0.201 ± 0.02	–	–
m1 = 0.01789	–	–	0.247 ± 0.025	–
m1 = 0.01929	0.166 ± 0.017	0.208 ± 0.021	0.258 ± 0.026	–
m1 = 0.01941	–	–	–	36.2 ± 1.5
m1 = 0.02071	0.17 ± 0.017	0.213 ± 0.021	0.265 ± 0.027	–
m1 = 0.02211	0.174 ± 0.017	0.219 ± 0.022	0.272 ± 0.027	–
m1 = 0.02348	0.178 ± 0.018	0.224 ± 0.022	0.279 ± 0.028	–
m1 = 0.02483	0.181 ± 0.018	0.229 ± 0.023	0.285 ± 0.029	–
m1 = 0.02615	0.185 ± 0.019	0.234 ± 0.023	0.292 ± 0.029	–
m1 = 0.02746	0.189 ± 0.019	0.238 ± 0.024	0.297 ± 0.03	–
m1 = 0.02874	0.192 ± 0.019	0.243 ± 0.024	0.304 ± 0.03	–
m1 = 0.03	0.195 ± 0.02	0.247 ± 0.025	0.31 ± 0.031	–
m1 = 0.0309	–	–	–	37.9 ± 1.6
m1 = 0.0456	–	–	–	38.3 ± 1.6
m1 = 0.07211	–	–	–	38.8 ± 1.6
m1 = 0.1062	–	–	–	38.9 ± 1.6

Source: the NIST ThermoML archive (doi:10.1021/acs.jced.8b00372)
